According to patent US20250099466A1 (BRISTOL-MYERS SQUIBB COMPANY, priority 2021, published 2025):

Test system: electrically induced carotid artery thrombus (ECAT) in rabbits
Assay: Prevention rabbit model of electrically induced carotid artery thrombus (ECAT)
Type: in vivo
Protocol: The rabbit ECAT model as described by Wong et al., Nonpeptide factor Xa inhibitors: II.
Male New Zealand white rabbits were anesthetized with ketamine (50 mg/kg+50 mg/kg/h intramuscularly) and xylazine (10 mg/kg+10 mg/kg/h intramuscularly). Thrombosis was induced by electrical stimulation of the control carotid artery for 3 minutes at 4 mA using an external stainless-steel bipolar electrode. Carotid blood flow was measured with an electromagnetic flow probe continuously over a 90-minute period to monitor thrombosis induced occlusion. Integrated carotid blood flow was measured by the area under the flowtime curve (see Wong et al.). In addition, thrombus from the injured artery was removed, blotted twice on a weighing paper to remove residual fluid, and weighed.
To achieve a stable plasma level with minimum experimental variability, compounds were administered by IV infusion. […] The IV infusion was continued throughout the experiment for both models.
Integrated blood flow, thrombus weight, aPTT (activated partial thromboplastin time), TT (thrombin time), and PT (prothrombin time) were also measured.

Question: Which results are given for `C[C@@H]1CCC[C@H](n2cnc(-c3cc(Cl)ccc3-n3cc(Cl)nn3)cc2=O)c2cc(ccn2)-c2c(cnn2C(F)F)NC1=O` [milvexian, (5R,9S)-9-(4-(5-chloro-2-(4-chloro-1H-1,2,3-triazol-1-yl)phenyl)-6-oxopyrimidin-1(6H)-yl)-21-(difluoromethyl)-5-methyl-21H-3-aza-1(4,2)-pyridina-2(5,4)-pyrazolacyclononaphan-4-one]?
Answer: thrombus weight reduction (highest dose (1+0.67 mg/kg+mg/kg/h IV), prevention ECAT): 70±2%; integrated blood flow, % of the control level (highest dose (1+0.67 mg/kg+mg/kg/h IV), prevention ECAT, n=6): 76±5%; duration of the patency of the carotid artery (prevention ECAT, 0.063+0.04, 0.25+0.17, 1+0.67 mg/kg+mg/kg/h IV): dose-dependent increase in duration of the patency of the carotid artery; bleeding time (rabbit): without a significant increase in bleeding time; antithrombotic 20% maximal effective concentration (EC20) (total plasma concentration, thrombus weight reduction, prevention ECAT): 55 nM
